Several values for one entry are separate records, joined by “and”; a condition that tells them apart may be missing. Equal entries are not always repeated.
Assays:
[1] = Autosampler stability, urine assay; format: physicochemical; conditions: human urine assay, stored refrigerated for up to 3 days and 8 hours
Protocol: Autosampler stability. […] To validate autosampler stability a batch containing two sets of calibrators and QCs was processed as normal. After completion of assay processing the first set of calibrators, QCs, and normal urines was injected and analyzed. After analysis the assay batch was stored refrigerated in the autosampler prior to reinjection of the first set of samples and first time injection of the second set of calibrators and QCs. The 96-well plates containing the processed assay were stored refrigerated in the autosampler for approximately 3 days, 8 hours, and 36 minutes before injection was completed for all samples. Post-storage recoveries were based on target concentrations for the stored, first time injection samples. Reinjected samples were compared to initial injection results to determine recoveries. Autosampler study results met acceptance criteria. […] Assay batches stored refrigerated for up to 3 days and 8 hours were stable and suitable for first time injection or re-injection to determine Prostaglandin D2 concentrations in human urine.

[2] = Short-term and freeze/thaw stability in human serum; format: physicochemical; conditions: for Mean concentration at stability time point / Measured Concentration (replicates): Donors 1-3; for Measured Concentration (replicates): human serum
Protocol: Serum samples were collected into red top tubes and frozen immediately. Specimens were stored according to the following conditions: • Short Term Storage • Serum Frozen (≤−10° C. and ≤−55° C.): 7 days • Serum Refrigerated (2-8° C.): Strictly frozen storage.
Short-term and freeze/thaw stability. Sample stability was confirmed by testing human serum from three individual donors that was stored at each of the different conditions likely to be encountered in sample handling and laboratory analysis. […] An additional set of the freshly collected serum underwent up to 6 freeze/thaw cycles prior to stability testing. All serum stability samples and baseline stored samples were tested with freshly prepared calibrators. All testing was performed in triplicate.

[3] = Short-term and freeze/thaw stability of PGD2 in urine; format: physicochemical, human
Protocol: Urine samples were collected into plastic containers. Specimens were stored according to the following conditions: • Short Term Storage • Urine Frozen (≤−10° C. and ≤−55° C.): 8 days • Urine Refrigerated (2-8° C.): 3 days • Urine Room Temperature (15-30° C.): 3 days • Urine Freeze/Thaw (≤−10° C.): 6 Cycles • Long Term Storage • Urine Frozen (≤−10° C.): Stability testing in process • Shipping Conditions: • Urine Frozen (≤−10° C.):—on dry ice PGD2 was stable for at least 3 days at 4° C. and at room temperature and 8 days frozen (≤−10° C. or ≤−55° C.). PGD2 was stable for at least 6 freeze-thaw cycles (≤−10° C. or ≤−55° C.). [table]

human ovarian tumor cell = conditions: read-out: IC50, inhibition of human ovarian tumor cell proliferation; cited from earlier work
[4] = Autosampler stability, serum assay; format: physicochemical; conditions: human serum assay, stored refrigerated for up to 3 days and 22 hours
Protocol: Autosampler stability. […] To validate autosampler stability a batch containing two sets of calibrators and QCs was processed as normal. After completion of assay processing the first set of calibrators and QCs was injected and analyzed. After analysis the assay batch was stored refrigerated in the autosampler prior to reinjection of the first set of samples and first time injection of the second set of calibrators and QCs. The 96-well plates containing the processed assay were stored refrigerated in the autosampler for approximately 3 days, 22 hours, and 16 minutes before injection was completed for all samples. Post-storage recoveries were based on target concentrations for the stored, first time injection samples. Reinjected samples were compared to initial injection results to determine recoveries. Autosampler study results met acceptance criteria. Assay batches stored refrigerated for up to 3 days and 22 hours are stable and suitable for first time injection or re-injection to determine Prostaglandin D2 concentrations in human serum.

[5] = Calibrator freeze/thaw stability; format: physicochemical; conditions: for replicates within 85-115% of the target: calibrator matrix
Protocol: Calibrator freeze/thaw stability. Calibrator freeze/thaw stability was examined by analyzing using an accuracy sample made in calibrator amatrix (A4 at 250 pg/mL). The accuracy sample underwent up to 6 freeze/thaw cycles prior to stability testing. Freeze/thaw cycles were performed as per Example 3. Times and temperatures were recorded on the incubation study stability forms. All testing was performed in triplicate. The target concentration for the accuracy sample was used to define acceptable ranges for measured concentrations after freeze/thaw cycles. For the first five freeze/thaw cycles, 100% of replicates were within 85-115% of the target (TABLE 15). For the sixth freeze/thaw cycle >60% of replicates were within 85-115% of the target (TABLE 15). […] Prostaglandin D2 is stable in calibrator matrix after 5 freeze/thaw cycles (6 total thaws).

[6] = Freeze/Thaw (<−10° C.), 1 Cycle (2 Thaws)
[7] = Freeze/Thaw (<−10° C.), 2 Cycles (3 Thaws)
[8] = Refrigerated (2-8° C.), 3.5 Hours

CCCCC[C@H](O)/C=C/[C@H]1C(=O)C[C@H](O)[C@@H]1C/C=C\CCCC(=O)O [PGD2, prostaglandin D2]
Autosampler stability of processed assay batches [1]: stable | % of replicates within 85-115% of mean at baseline [2, 6]: 100.00% | % of replicates within 85-115% of mean at baseline [2, 7]: 77.78% | % of replicates within 85-115% of mean at baseline ([2]; Freeze/Thaw (<−10° C.), 3 Cycles (4 Thaws)): 0.00% | % of replicates within 85-115% of mean at baseline ([2]; Freeze/Thaw (<−10° C.), 6 Cycles (7 Thaws)): 0.00% | % of replicates within 85-115% of mean at baseline ([2]; Frozen (<−55° C.), 7 Days): 100.00% | % of replicates within 85-115% of mean at baseline ([2]; Frozen (≤−10° C.), 7 Days): 100.00% | % of replicates within 85-115% of mean at baseline ([2]; Refrigerated (2-8° C.), 1 Day): 0.00% | % of replicates within 85-115% of mean at baseline ([2]; Refrigerated (2-8° C.), 3 Days): 0.00% | Mean concentration at stability time point ([2]; Refrigerated (2-8° C.), 3 Days): 3.83 pg/mL and 4.93 pg/mL and 3.33 pg/mL | % of replicates within 85-115% of mean at baseline [2, 8]: 88.89% | % of replicates within 85-115% of mean at baseline ([2]; Refrigerated (2-8° C.), 7 Hours): 0.00% | % of replicates within 85-115% of mean at baseline ([2]; Room Temp (15-30° C.), 1 Day): 0.00% | Mean concentration at stability time point ([2]; Room Temp (15-30° C.), 1 Day): 6.95 pg/mL and 4.42 pg/mL and 4.22 pg/mL | % of replicates within 85-115% of mean at baseline ([2]; Room Temp (15-30° C.), 3 Days): 0.00% | Mean concentration at stability time point ([2]; Room Temp (15-30° C.), 3 Days): 9.17 pg/mL and 6.27 pg/mL and 5.78 pg/mL | % of replicates within 85-115% of mean at baseline ([2]; Room Temp (15-30° C.), 3.5 Hours): 0.00% | % of replicates within 85-115% of mean at baseline ([2]; Room Temp (15-30° C.), 7 Hours): 0.00% | Short-term and freeze/thaw stability study result ([2]; frozen and refrigerated serum): did meet acceptance criteria | Measured Concentration (replicates) [2, 6]: 23.2 pg/mL and 95.8 pg/mL and 52.9 pg/mL and 21.1 pg/mL and 107 pg/mL (2×) and 52.4 pg/mL and 23.4 pg/mL and 60.5 pg/mL | Measured Concentration (replicates) [2, 7]: 22.1 pg/mL and 93.3 pg/mL and 19.4 pg/mL and 51.4 pg/mL and 19.7 pg/mL and 92.0 pg/mL and 51.2 pg/mL | Measured Concentration (replicates) ([2]; Frozen (<−55° C.), 7 Days): 24.5 pg/mL (3×) and 119 pg/mL and 65.7 pg/mL and 121 pg/mL and 66.8 pg/mL and 122 pg/mL and 67.9 pg/mL | Measured Concentration (replicates) ([2]; Frozen (≤−10° C.), 7 Days): 23.3 pg/mL (2×) and 101 pg/mL and 53.8 pg/mL and 113 pg/mL (2×) and 57.9 pg/mL and 24.2 pg/mL and 62.3 pg/mL | Measured Concentration (replicates) [2, 8]: 103 pg/mL and 57.9 pg/mL and 20.9 pg/mL and 107 pg/mL and 57.6 pg/mL and 19.9 pg/mL and 93.5 pg/mL and 54.7 pg/mL | Measured Concentration (replicates) ([2]; day of collection, time 0): 21.9 pg/mL and 104 pg/mL and 60.4 pg/mL and 22.0 pg/mL and 107 pg/mL and 59.1 pg/mL and 24.7 pg/mL and 111 pg/mL and 55.6 pg/mL | Short-term stability study result ([2]; serum stored at room temperature): did not meet acceptance criteria | stable for at least (time) ([3]; 4° C.): at least 3 days | stable for at least (time) ([3]; frozen (≤−10° C. or ≤−55° C.)): ≥ 8 days | stable for at least (time) ([3]; room temperature): at least 3 days | stable for at least (freeze-thaw cycles) ([3]; ≤−10° C. or ≤−55° C.): at least 6 freeze-thaw cycles | IC50 (human ovarian tumor cell): 6.8 µM | Autosampler stability of processed assay batches [4]: stable | stable in calibrator matrix after (freeze/thaw cycles) ([5]; accuracy sample A4 at 250 pg/mL): 5 freeze/thaw cycles | replicates within 85-115% of the target ([5]; first five freeze/thaw cycles): 100% | replicates within 85-115% of the target ([5]; sixth freeze/thaw cycle): > 60%

From patent US12025619B2, “Methods and systems for detecting prostaglandins by LC-MS/MS” (Laboratory Corporation of America Holdings, priority 2020, dated 2024)
